Measurements: PMC8161055, “Synthesis and α-Glucosidase Inhibition Activity of 2-[3-(Benzoyl/4-bromobenzoyl)-4-hydroxy-1,1-dioxido-2H-benzo[e][1,2]thiazin-2-yl]-N-arylacetamides: An In Silico and Biochemical Approach” (Molecules, 2021)
Like-named read-outs stand apart in the source and are kept apart here.

Key:
[1] = target: T1, α-glucosidase (Saccharomyces cerevisiae, UniProt P53341); assay: biochemical; format: biochemical; conditions: for inhibition at 200 µM: read-out: Inhibitions (%); for effectiveness as inhibitor compared to acarbose: ratio of IC50 values vs acarbose
T1 construct: purchased Sigma-Aldrich, Munich, Germany
T1 sequence (P53341 whole entry): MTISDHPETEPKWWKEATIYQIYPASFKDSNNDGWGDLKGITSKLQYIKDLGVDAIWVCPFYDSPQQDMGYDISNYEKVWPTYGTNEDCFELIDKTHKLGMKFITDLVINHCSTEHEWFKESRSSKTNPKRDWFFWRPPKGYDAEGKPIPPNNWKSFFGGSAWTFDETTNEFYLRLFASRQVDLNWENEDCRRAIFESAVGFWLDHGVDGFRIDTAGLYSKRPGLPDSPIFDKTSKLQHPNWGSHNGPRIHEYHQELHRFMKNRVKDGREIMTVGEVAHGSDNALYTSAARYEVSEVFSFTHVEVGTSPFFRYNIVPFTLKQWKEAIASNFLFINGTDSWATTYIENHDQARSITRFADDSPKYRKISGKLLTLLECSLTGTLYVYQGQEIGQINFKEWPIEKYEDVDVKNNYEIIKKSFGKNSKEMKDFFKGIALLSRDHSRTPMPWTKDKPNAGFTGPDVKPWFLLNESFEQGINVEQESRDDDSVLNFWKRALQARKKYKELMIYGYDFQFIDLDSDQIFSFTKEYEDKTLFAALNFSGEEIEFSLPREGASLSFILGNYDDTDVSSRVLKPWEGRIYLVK
Procedure: In vitro analysis of all the synthesized compounds was performed in order to justify the validity of in silico outcomes. Results were found in good agreement with the in silico study. […] A general spectrophotometric technique was used to perform the α-glucosidase inhibition assay with slight modifications. […] The experiment was repeated thrice and inhibition percentages were calculated using the following formula. % Inhibition = [(A control − A sample) / A control] × 100(1) where ‘A’ stands for absorbance.

[2] = test system: human 11β-HSD1; design: method as in PMID 21212546; conditions: cited from earlier work

Row | Compound | inhibition at 200 µM [1] | melting point | IC50 [1] | effectiveness as inhibitor compared to acarbose [1] | IC50 [2] | IC50 ([1]; PNPG substrate, pH 6.8, 37 °C, read-out: IC50) | Inhibitions (%) ([1]; at 200 μM concentration)
1 | Cc1ccc(NC(=O)CN2C(C(=O)c3ccccc3)=C(O)c3ccccc3S2(=O)=O)cc1 [Compound 11f, 2-(3-Benzoyl-4-hydroxy-1,1-dioxido-2H-benzo[e][1,2]thiazin-2-yl)-N-(p-tolyl)acetamide] | 37% | 136 to 137 °C |  |  |  |  | 
2 | O=C(CN1C(C(=O)c2ccccc2)=C(O)c2ccccc2S1(=O)=O)Nc1cccc(Br)c1 [Compound 11j, 2-(3-Benzoyl-4-hydroxy-1,1-dioxido-2H-benzo[e][1,2]thiazin-2-yl)-N-(3-bromophenyl)acetamide] | 50% | 163 to 166 °C | > 100 µM |  |  |  | 
3 | O=C(CN1C(C(=O)c2ccc(Br)cc2)=C(O)c2ccccc2S1(=O)=O)Nc1ccccc1[N+](=O)[O-] [Compound 12g, 2-(3-(4-Bromobenzoyl)-4-hydroxy-1,1-dioxido-2H-benzo[e][1,2]thiazin-2-yl)-N-(2-nitrophenyl)acetamide] | 76% | 177 to 178 °C | 24.2 µM |  |  |  | 
4 | O=C(CN1C(C(=O)c2ccc(Br)cc2)=C(O)c2ccccc2S1(=O)=O)Nc1ccccc1Cl [Compound 12a, 2-(3-(4-Bromobenzoyl)-4-hydroxy-1,1-dioxido-2H-benzo[e][1,2]thiazin-2-yl)-N-(2-chlorophenyl)acetamide] | 79% | 180 to 181 °C | 18.2 µM | roughly three-fold |  |  | 
5 | O=C(CN1C(C(=O)c2ccc(Br)cc2)=C(O)c2ccccc2S1(=O)=O)Nc1cccc([N+](=O)[O-])c1 [Compound 12h, 2-(3-(4-Bromobenzoyl)-4-hydroxy-1,1-dioxido-2H-benzo[e][1,2]thiazin-2-yl)-N-(3-nitrophenyl)acetamide] | 58% | 208 to 209 °C | > 100 µM |  |  |  | 
6 | O=C(C1=C(O)c2ccccc2S(=O)(=O)N1)c1ccccc1 [Compound 9a, (4-Hydroxy-1,1-dioxido-2H-benzo[e][1,2]thiazin-3-yl)(phenyl)methanone] | 20% | 156 to 157 °C |  |  |  |  | 
7 | O=C(CN1C(C(=O)c2ccccc2)=C(O)c2ccccc2S1(=O)=O)Nc1ccccc1Cl [Compound 11a, 2-(3-Benzoyl-4-hydroxy-1,1-dioxido-2H-benzo[e][1,2]thiazin-2-yl)-N-(2-chlorophenyl)acetamide] | 39% | 141 to 142 °C |  |  |  |  | 
8 | O=C(CN1C(C(=O)c2ccc(Br)cc2)=C(O)c2ccccc2S1(=O)=O)Nc1ccc(Br)cc1 [Compound 12k, 2-(3-(4-Bromobenzoyl)-4-hydroxy-1,1-dioxido-2H-benzo[e][1,2]thiazin-2-yl)-N-(4-bromophenyl)acetamide] | 48% | 200 to 203 °C |  |  |  |  | 
9 | O=C(CN1C(C(=O)c2ccccc2)=C(O)c2ccccc2S1(=O)=O)Nc1cccc(Cl)c1 [Compound 11b, 2-(3-Benzoyl-4-hydroxy-1,1-dioxido-2H-benzo[e][1,2]thiazin-2-yl)-N-(3-chlorophenyl)acetamide] | 32% | 182 to 184 °C |  |  |  |  | 
10 | O=C(CN1C(C(=O)Nc2ccccc2)=C(O)c2ccccc2S1(=O)=O)Nc1cccc(C(F)(F)F)c1 [derivative 3] |  |  |  |  | 0.041 µM |  | 
11 | Cc1ccc(NC(=O)CN2C(C(=O)c3ccc(Br)cc3)=C(O)c3ccccc3S2(=O)=O)cc1 [Compound 12f, 2-(3-(4-Bromobenzoyl)-4-hydroxy-1,1-dioxido-2H-benzo[e][1,2]thiazin-2-yl)-N-(p-tolyl)acetamide] | 20% | 190 to 192 °C |  |  |  |  | 
12 | O=C(CN1C(C(=O)c2ccc(Br)cc2)=C(O)c2ccccc2S1(=O)=O)Nc1cccc(Cl)c1 [Compound 12b, 2-(3-(4-Bromobenzoyl)-4-hydroxy-1,1-dioxido-2H-benzo[e][1,2]thiazin-2-yl)-N-(3-chlorophenyl)acetamide] | 47% | 148 to 150 °C |  |  |  |  | 
13 | O=C(CN1C(C(=O)c2ccccc2)=C(O)c2ccccc2S1(=O)=O)Nc1ccc(Br)cc1 [Compound 11k, 2-(3-Benzoyl-4-hydroxy-1,1-dioxido-2H-benzo[e][1,2]thiazin-2-yl)-N-(4-bromophenyl)acetamide] | 13% | 150 to 153 °C |  |  |  |  | 
14 | O=C(CN1C(C(=O)c2ccc(Br)cc2)=C(O)c2ccccc2S1(=O)=O)Nc1ccc([N+](=O)[O-])cc1 [Compound 12i, 2-(3-(4-Bromobenzoyl)-4-hydroxy-1,1-dioxido-2H-benzo[e][1,2]thiazin-2-yl)-N-(4-nitrophenyl)acetamide] | 33% | 210 to 212 °C |  |  |  |  | 
15 | O=C(CN1C(C(=O)c2ccc(Br)cc2)=C(O)c2ccccc2S1(=O)=O)Nc1cccc(Br)c1 [Compound 12j, 2-(3-(4-Bromobenzoyl)-4-hydroxy-1,1-dioxido-2H-benzo[e][1,2]thiazin-2-yl)-N-(3-bromophenyl)acetamide] | 12% | 145 to 147 °C |  |  |  |  | 
16 | Cc1ccccc1NC(=O)CN1C(C(=O)c2ccc(Br)cc2)=C(O)c2ccccc2S1(=O)=O [Compound 12d, 2-(3-(4-Bromobenzoyl)-4-hydroxy-1,1-dioxido-2H-benzo[e][1,2]thiazin-2-yl)-N-(o-tolyl)acetamide] | 76% | 193 to 194 °C | 20.8 µM | roughly three-fold |  |  | 
17 | O=C(CN1C(C(=O)c2ccccc2)=C(O)c2ccccc2S1(=O)=O)Nc1ccc([N+](=O)[O-])cc1 [Compound 11i, 2-(3-Benzoyl-4-hydroxy-1,1-dioxido-2H-benzo[e][1,2]thiazin-2-yl)-N-(4-nitrophenyl)acetamide] | 77% | 194 to 195 °C | 40.4 µM |  |  |  | 
18 | O=C(CN1C(C(=O)c2ccccc2)=C(O)c2ccccc2S1(=O)=O)Nc1ccccc1[N+](=O)[O-] [Compound 11g, 2-(3-Benzoyl-4-hydroxy-1,1-dioxido-2H-benzo[e][1,2]thiazin-2-yl)-N-(2-nitrophenyl)acetamide] | 58% | 157 to 158 °C | 88.1 µM |  |  |  | 
19 | O=C(CN1C(C(=O)c2ccc(Br)cc2)=C(O)c2ccccc2S1(=O)=O)Nc1ccc(Cl)cc1 [Compound 12c, 2-(3-(4-Bromobenzoyl)-4-hydroxy-1,1-dioxido-2H-benzo[e][1,2]thiazin-2-yl)-N-(4-chlorophenyl)acetamide] | 61% | 181 to 184 °C | > 100 µM |  |  |  | 
20 | O=C(CN1C(C(=O)c2ccccc2)=C(O)c2ccccc2S1(=O)=O)Nc1ccc(Cl)cc1 [Compound 11c, 2-(3-Benzoyl-4-hydroxy-1,1-dioxido-2H-benzo[e][1,2]thiazin-2-yl)-N-(4-chlorophenyl)acetamide] | 79% | 146 to 148 °C | 30.6 µM |  |  |  | 
21 | Cc1cccc(NC(=O)CN2C(C(=O)c3ccccc3)=C(O)c3ccccc3S2(=O)=O)c1 [Compound 11e, 2-(3-Benzoyl-4-hydroxy-1,1-dioxido-2H-benzo[e][1,2]thiazin-2-yl)-N-(m-tolyl)acetamide] | 15% | 177 to 178 °C |  |  |  |  | 
22 | COc1ccccc1NC(=O)CN1C(C(=O)c2ccc(Br)cc2)=C(O)c2ccccc2S1(=O)=O [Compound 12l, 2-(3-(4-Bromobenzoyl)-4-hydroxy-1,1-dioxido-2H-benzo[e][1,2]thiazin-2-yl)-N-(2-methoxyphenyl)acetamide] | 34% | 186 to 187 °C |  |  |  |  | 
23 | COc1ccccc1NC(=O)CN1C(C(=O)c2ccccc2)=C(O)c2ccccc2S1(=O)=O [Compound 11l, 2-(3-Benzoyl-4-hydroxy-1,1-dioxido-2H-benzo[e][1,2]thiazin-2-yl)-N-(2-methoxyphenyl)acetamide] | 54% | 199 to 200 °C | > 100 µM |  |  |  | 
24 | COc1ccc(NC(=O)CN2C(C(=O)c3ccccc3)=C(O)c3ccccc3S2(=O)=O)cc1 [Compound 11m, 2-(3-Benzoyl-4-hydroxy-1,1-dioxido-2H-benzo[e][1,2]thiazin-2-yl)-N-(4-methoxyphenyl)acetamide] | 69% | 164 to 165 °C |  |  |  |  | 
25 | O=C(C1=C(O)c2ccccc2S(=O)(=O)N1)c1ccc(Br)cc1 [Compound 9b, (4-Bromophenyl)(4-hydroxy-1,1-dioxido-2H-benzo[e][1,2]thiazin-3-yl)methanone] | 55% | 144 to 146 °C | > 100 µM |  |  |  | 
26 | Cc1cccc(NC(=O)CN2C(C(=O)c3ccc(Br)cc3)=C(O)c3ccccc3S2(=O)=O)c1 [Compound 12e, 2-(3-(4-Bromobenzoyl)-4-hydroxy-1,1-dioxido-2H-benzo[e][1,2]thiazin-2-yl)-N-(m-tolyl)acetamide] | 71% | 143 to 144 °C | 35.1 µM |  |  |  | 
27 | 2-(3-(4-Bromobenzoyl)-4-hydroxy-1,1-dioxido-2H-benzo[e][1,2]thiazin-2-yl)-N-(4-methoxyphenyl)acetamide [Compound 12m] |  |  |  |  |  | 58.5 µM | 65%
28 | Cc1ccccc1NC(=O)CN1C(C(=O)c2ccccc2)=C(O)c2ccccc2S1(=O)=O [Compound 11d, 2-(3-Benzoyl-4-hydroxy-1,1-dioxido-2H-benzo[e][1,2]thiazin-2-yl)-N-(o-tolyl)acetamide] | 10% | 165 to 167 °C |  |  |  |  | 
29 | O=C(CN1C(C(=O)c2ccccc2)=C(O)c2ccccc2S1(=O)=O)Nc1cccc([N+](=O)[O-])c1 [Compound 11h, 2-(3-Benzoyl-4-hydroxy-1,1-dioxido-2H-benzo[e][1,2]thiazin-2-yl)-N-(3-nitrophenyl)acetamide] | 63% | 170 to 172 °C | 47.1 µM |  |  |  | 
